Data reported in patent US9205064B2, “Methods for the diagnosis of oncological disorders using epimetabolic shifters, multidimensional intracellular molecules, or environmental influencers” (Berg LLC, priority 2009, dated 2015).

What was measured:
Type in all cases: cell-based
[1] = test system: PaCa-2 pancreatic cancer cells; assay: SeaHorse XF analyzer OCR and ECAR
From the text: Environmental influencers (e.g., MIMs or Epi-shifters) may also be identified by changes in cellular energetics. One example of the measurement of cellular energetics are the real-time measures of the consumption of molecular oxygen and/or the change in pH of the media of a cell culture. For example, the ability of a potential epi-shifter to modulate the metabolic state of a cell may be analyzed using, for example, the XF24 Analyzer (Seahorse, Inc.). This technology allows for real time detection of oxygen and pH changes in a monolayer of cells in order to evaluate the bioenergetics of a cell microenvironment. The XF24 Analyzer measures and compares the rates of oxygen consumption (OCR), which is a measure of aerobic metabolism, and extracellular acidification (ECAR), which is a measure of glycolysis, both key indicators of cellular energetics.
(SeaHorse Biosciences Inc, North Billerica, Mass.).
In contrast, cancer cells (e.g., MCF-7, PaCa-2) are inherently primed to culture at higher levels of glucose compared to normal cells due to their glycolytic phenotype for maintenance in culture.
In contrast to normal cells, cancer cells are phenotypically primed to use high glucose for ATP generation (enhanced glycolysis) resulting in higher ECAR (Table 55, ECAR for untreated normoxia 17 mM) at 21 mpH/min. […]

SCC cells [2] = assay: Real-time PCR Apoptosis Array
Description: (§1) The control cells were untreated cells.
(§2) RNA was quantified by measuring Optical Density at 260 nm.
The genes in the Apoptosis array that appear to be regulated in SCC cells are described in Table 7. […] By 24 hours, the regulation is decreased.

SCC cells [3] = assay: Real-time PCR Diabetes Array; settings: 100 μM Q10, at 6 hours
From the text: as §1, §2

SCC cells [4] = assay: 2-D gel electrophoresis proteomic analysis with mass spectrometry identification; settings: 100 μM Q10, 24 hr
From the text: The gels were run in duplicate.

## COC1=C(OC)C(=O)C(C/C=C(\C)CC/C=C(\C)CC/C=C(\C)CC/C=C(\C)CC/C=C(\C)CC/C=C(\C)CC/C=C(\C)CC/C=C(\C)CC/C=C(\C)CCC=C(C)C)=C(C)C1=O [Q10, Coenzyme Q10]
[1]; absence and presence of stressors
  OCR values: consistent reduction
[1]; normoxia, high glucose
  ECAR rates: significant decrease
SCC cells [2]; 100 μM Q10, 6 hours
  AKT1 mRNA Regulation: Down regulated at 6 hours and then
  BCL2L1 mRNA Regulation: Down regulated at 6 hours and then
  BIRC3 mRNA Regulation: Down regulated at 6 hours.
  CARD6 mRNA Regulation: Down regulated at 6 hours.
  CD27 mRNA Regulation: Down regulated at 6 hours.
  CD40 mRNA Regulation: Down regulated at 6 hours.
  CD70 mRNA Regulation: Down regulated at 6 hours.
  TNFRSF9 mRNA Regulation: Down regulated at 6 hours.
  TNFRSF21 mRNA Regulation: Down regulated at 6 hours.
  TNFRSF25 mRNA Regulation: Down regulated at 6 hours and then
  TP73 mRNA Regulation: Down regulated at 6 hours and then
SCC cells [2]; 100 μM Q10, 24 hours
  AKT1 mRNA Regulation: up regulated at 24 hours.
  BAG4 mRNA Regulation: Up regulated at 24 hours.
  BAX mRNA Regulation: Up regulated at 24 hours.
  BCL2L1 mRNA Regulation: up regulated at 24 hours.
  BCL2 mRNA Regulation: Up regulated at 24 hours.
  BNIP3 mRNA Regulation: Down regulated at 24 hours.
  CASP6 mRNA Regulation: Up regulated at 24 hours.
  CASP7 mRNA Regulation: Up regulated at 24 hours.
  FADD mRNA Regulation: Up regulated at 24 hours.
  GADD45A mRNA Regulation: Up regulated at 24 hours.
  HRK mRNA Regulation: Up regulated at 24 hours.
  TNFRSF25 mRNA Regulation: up regulated at 24 hours.
  TNFSF10 mRNA Regulation: Up regulated at 24 hours.
  TP53 mRNA Regulation: Up regulated at 24 hours.
  TP73 mRNA Regulation: up regulated at 24 hours.
  TRAF2 mRNA Regulation: Up regulated at 24 hours.
SCC cells [3]
  INPPL1 Regulation: Down regulated at
SCC cells [4]
  HSP 70, spot 116: Response (further): decrease at 24 hr
  NM23 protein (NME1), spot 54: Response: decrease at 24 hr
